The record followed here is patent publication US20220282217A1, “COMPOSITIONS AND METHODS FOR PREPARING T CELL COMPOSITIONS AND USES THEREOF” (priority 2019, published 2022).

The structures appear in SMILES notation. Where a SMILES comes first, the peptide text is derived from it.

In the first assay the target is HLA-A02.01 (Homo sapiens, UniProt P04439, D140Y/D185E/D98H/E176V/E277Q/G131W/G231S/I119V/I121R/I166T/I218V/L300P/L318F/N151K/N90K/P208A/P217A/Q86G/Q94H/R138H/R169H/T345S). Put plainly: Class I MHC peptide binding affinity (displacement of radiolabeled reference peptide). The settings on record: BTK C481S peptide; HLA Allele A02.01; read-out: Affinity. An outline of the steps: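 MHC class I complexes were loaded with a radiolabeled reference peptide, then exposed to test peptides over a range of concentrations for 2 days. Reference peptide still bound to the complexes was quantified by size-exclusion gel filtration.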
`CSCC[C@H](NC(=O)[C@@H](N)Cc1ccc(O)cc1)C(=O)N[C@@H](C)C(=O)N[C@@H](CC(N)=O)C(=O)NCC(=O)N[C@@H](CO)C(=O)N[C@@H](CC(C)C)C(=O)N[C@@H](CC(C)C)C(=O)N[C@@H](CC(N)=O)C(=O)O` (H-YMANGSLLN-OH; N-terminus and C-terminus assumed): the IC50 was determined as 4000 nM.

The same assay, now with this note: EGFR T790M peptides; HLA allele A02.01; read-out: Affinity.
Consider `CC[C@H](C)[C@H](NC(=O)[C@H](CC(C)C)NC(=O)[C@@H](N)CCC(N)=O)C(=O)N[C@@H](CCSC)C(=O)N[C@@H](CCC(N)=O)C(=O)N[C@@H](CC(C)C)C(=O)N[C@@H](CCSC)C(=O)N1CCC[C@H]1C(=O)N[C@@H](Cc1ccccc1)C(=O)NCC(=O)O` (H-QLIMQLMPFG-OH; N-terminus and C-terminus assumed), for which the Kd is 5210 nM.

The same assay, now with this note: Observed Affinity (IC50; (nM)), allele A02.01.
For the molecule `CC[C@H](C)[C@H](NC(=O)[C@H](CC(=O)O)NC(=O)[C@H](CC(C)C)NC(=O)[C@@H](N)CC(C)C)C(=O)N[C@@H](CC(C)C)C(=O)N[C@@H](CC(=O)O)C(=O)N[C@H](C(=O)N[C@@H](C)C(=O)NCC(=O)N[C@@H](CC(C)C)C(=O)O)[C@@H](C)O` (H-LLDILDTAGL-OH; N-terminus and C-terminus assumed), the IC50 was 716 nM.

The same assay, now with this note: allele A02.01; read-out: Observed Affinity (IC50; (nM)).
In the case of `CC(C)C[C@H](NC(=O)[C@H](C)NC(=O)[C@H](Cc1ccccc1)NC(=O)[C@H](CO)NC(=O)[C@@H](NC(=O)[C@H](CCC(N)=O)NC(=O)[C@@H](NC(=O)[C@@H](NC(=O)[C@H](CCC(N)=O)NC(=O)[C@@H](N)CC(C)C)C(C)C)[C@@H](C)O)[C@@H](C)O)C(=O)O` [LQVTQTSFAL] (H-LQVTQTSFAL-OH; N-terminus and C-terminus assumed), the IC50 came out at 718 nM.
On to `CC[C@H](C)[C@H](NC(=O)[C@@H]1CCCN1C(=O)[C@H](CCCNC(=N)N)NC(=O)[C@H](Cc1c[nH]cn1)NC(=O)[C@@H]1CCCN1C(=O)[C@H](CS)NC(=O)[C@H](CCCNC(=N)N)NC(=O)[C@H](CCC(=O)O)NC(=O)[C@H](CC(C)C)NC(=O)[C@@H](N)C(C)C)C(=O)O`, for which the IC50 amounted to 15300 nM.
Take `CC[C@H](C)[C@H](NC(=O)[C@H](CC(C)C)NC(=O)[C@@H](N)CCC(N)=O)C(=O)N[C@@H](CCSC)C(=O)N[C@@H](CCC(N)=O)C(=O)N[C@@H](CC(C)C)C(=O)N[C@@H](CCSC)C(=O)N1CCC[C@H]1C(=O)N[C@@H](Cc1ccccc1)C(=O)NCC(=O)O` (H-QLIMQLMPFG-OH; N-terminus and C-terminus assumed): the IC50 was 5930 nM.
On the same count and under the same terms, under `CC(C)C[C@H](NC(=O)[C@H](C)NC(=O)[C@@H](NC(=O)[C@@H]1CCCN1C(=O)[C@@H](NC(=O)[C@H](CS)NC(=O)[C@H](CO)NC(=O)[C@H](CO)NC(=O)[C@H](CC(C)C)NC(=O)[C@@H](N)CCCNC(=N)N)C(C)C)C(C)C)C(=O)O` [RLSSCVPVAL] (H-RLSSCVPVAL-OH; N-terminus and C-terminus assumed) stands 54.2 nM; under `CC(C)C[C@H](NC(=O)[C@H](CCCNC(=N)N)NC(=O)[C@@H](NC(=O)[C@H](CC(C)C)NC(=O)[C@@H](N)CO)C(C)C)C(=O)N[C@@H](CO)C(=O)N[C@@H](CO)C(=O)N[C@@H](CS)C(=O)N[C@H](C(=O)O)C(C)C` (H-SLVRLSSCV-OH; N-terminus and C-terminus assumed), 29.9 nM.
On the same count and under the same terms, the value for `CC[C@H](C)[C@H](NC(=O)[C@H](CC(=O)O)NC(=O)[C@H](CC(C)C)NC(=O)[C@H](CC(C)C)NC(=O)[C@H](Cc1ccccc1)NC(=O)[C@H](Cc1ccccc1)NC(=O)[C@H](C)NC(=O)[C@@H](NC(=O)[C@@H](NC(=O)[C@@H](N)Cc1ccc(O)cc1)[C@@H](C)CC)[C@@H](C)O)C(=O)O` (H-YITAFFLLDI-OH; N-terminus and C-terminus assumed) was 64.5 nM; that for `CC[C@H](C)[C@H](NC(=O)[C@@H]1CCCN1C(=O)[C@H](CCCNC(=N)N)NC(=O)[C@H](Cc1c[nH]c2ccccc12)NC(=O)[C@H](CC(N)=O)NC(=O)[C@H](CCSC)NC(=O)CN)C(=O)N[C@@H](CC(C)C)C(=O)N[C@H](C(=O)O)[C@@H](C)O` (H-GMNWRPILT-OH; N-terminus and C-terminus assumed) was 1130 nM.
Consider `CC[C@H](C)[C@H](N)C(=O)N[C@@H](CC(C)C)C(=O)N[C@@H](CC(C)C)C(=O)N1CCC[C@H]1C(=O)N[C@@H](CCC(=O)O)C(=O)N[C@@H](CC(=O)O)C(=O)N[C@H](C(=O)N1CCC[C@H]1C(=O)N1CCC[C@H]1C(=O)N[C@@H](CC(C)C)C(=O)O)[C@@H](C)O` (H-ILLPEDTPPL-OH; N-terminus and C-terminus assumed), for which the IC50 was 6.7 nM.
With `CC[C@H](C)[C@H](NC(=O)[C@H](C)N)C(=O)N[C@@H](CCC(N)=O)C(=O)N1CCC[C@H]1C(=O)N[C@H](C(=O)N[C@@H](CC(C)C)C(=O)N[C@@H](Cc1c[nH]c2ccccc12)C(=O)N[C@H](C(=O)N[C@H](C(=O)O)[C@@H](C)O)[C@@H](C)O)C(C)C` (H-AIQPVLWTT-OH; N-terminus and C-terminus assumed), the IC50 came out at 8.1 nM.
Still for that read-out and setting: the value for `CC[C@H](C)[C@H](NC(=O)[C@H](CC(C)C)NC(=O)[C@@H]1CCCN1C(=O)[C@H](Cc1ccccc1)NC(=O)[C@H](CC(C)C)NC(=O)[C@H](CCC(=O)O)NC(=O)[C@@H]1CCCN1C(=O)CNC(=O)[C@@H](N)CCCCN)C(=O)O` (H-KGPELFPLI-OH) was 101 nM; that for `CSCC[C@H](NC(=O)[C@H](CCCCN)NC(=O)CNC(=O)[C@H](CC(N)=O)NC(=O)[C@H](CCC(N)=O)NC(=O)[C@@H](N)Cc1ccccc1)C(=O)N[C@@H](C)C(=O)N[C@@H](CC(C)C)C(=O)N[C@@H](CO)C(=O)N[C@@H](C)C(=O)O` was 6160 nM; that for `CC(C)C[C@H](NC(=O)[C@H](CO)NC(=O)[C@H](CCCNC(=N)N)NC(=O)[C@H](Cc1c[nH]c2ccccc12)NC(=O)[C@H](CCC(N)=O)NC(=O)[C@@H](NC(=O)CNC(=O)[C@H](C)NC(=O)[C@H](CCC(N)=O)NC(=O)[C@H](C)N)C(C)C)C(=O)O` (H-AQAGVQWRSL-OH; N-terminus and C-terminus assumed) was 670 nM.
Same read-out and setting: under `CSCC[C@H](NC(=O)[C@@H](N)Cc1ccc(O)cc1)C(=O)N[C@@H](C)C(=O)N[C@@H](CC(N)=O)C(=O)NCC(=O)N[C@@H](CO)C(=O)N[C@@H](CC(C)C)C(=O)N[C@@H](CC(C)C)C(=O)N[C@@H](CC(N)=O)C(=O)O` (H-YMANGSLLN-OH; N-terminus and C-terminus assumed) stands 4440 nM.
Same read-out and setting: under `CC[C@H](C)[C@H](NC(=O)[C@@H]1CCCN1C(=O)[C@H](CCCNC(=N)N)NC(=O)[C@H](CCCNC(=N)N)NC(=O)[C@H](CC(N)=O)NC(=O)[C@H](CCSC)NC(=O)[C@H](CO)NC(=O)CNC(=O)[C@H](CCSC)NC(=O)[C@@H](N)CS)C(=O)O` (H-CMGSMNRRPI-OH; N-terminus and C-terminus assumed) stands 1990 nM; under `CC[C@H](C)[C@H](NC(=O)[C@@H](N)Cc1ccccc1)C(=O)N[C@@H](CC(C)C)C(=O)N[C@@H](CCSC)C(=O)N[C@@H](CCC(=O)O)C(=O)N[C@@H](CC(C)C)C(=O)N[C@@H](CCSC)C(=O)N[C@@H](C)C(=O)NCC(=O)NCC(=O)O` (H-FILMELMAGG-OH; N-terminus and C-terminus assumed), 1580 nM; under `CC(C)C[C@H](NC(=O)[C@H](CO)NC(=O)CNC(=O)[C@H](CC(C)C)NC(=O)[C@H](CO)NC(=O)[C@H](CCCNC(=N)N)NC(=O)[C@H](Cc1c[nH]c2ccccc12)NC(=O)[C@H](CCC(N)=O)NC(=O)[C@@H](N)C(C)C)C(=O)O` (H-VQWRSLGSL-OH; N-terminus and C-terminus assumed), 4730 nM.
Regarding `CC[C@H](C)[C@H](NC(=O)[C@H](CCC(N)=O)NC(=O)[C@@H](N)CO)C(=O)N[C@@H](CCSC)C(=O)N[C@@H](CO)C(=O)N[C@@H](CC(C)C)C(=O)N[C@@H](Cc1c[nH]c2ccccc12)C(=O)NCC(=O)N[C@@H](CC(C)C)C(=O)O`, the IC50 came to 62 nM.
Still for that read-out and setting: the value for `CC[C@H](C)[C@H](NC(=O)[C@@H](NC(=O)[C@H](CO)NC(=O)[C@H](Cc1ccccc1)NC(=O)[C@H](Cc1ccccc1)NC(=O)[C@@H](N)Cc1ccccc1)C(C)C)C(=O)N[C@@H](Cc1ccccc1)C(=O)N[C@@H](CO)C(=O)N[C@H](C(=O)O)[C@@H](C)O` (H-FFFSVIFST-OH; N-terminus and C-terminus assumed) was 4560 nM; that for `CC(C)C[C@H](NC(=O)[C@H](C)NC(=O)[C@H](CC(C)C)NC(=O)[C@H](CC(C)C)NC(=O)[C@@H](N)Cc1ccccc1)C(=O)N[C@@H](Cc1c[nH]c2ccccc12)C(=O)N[C@@H](CCC(=O)O)C(=O)N[C@@H](CS)C(=O)N[C@@H](CO)C(=O)O` (H-FLLALWECS-OH; N-terminus and C-terminus assumed) was 93.2 nM; that for `CC[C@H](C)[C@H](NC(=O)[C@H](Cc1ccccc1)NC(=O)[C@H](CCCNC(=N)N)NC(=O)[C@@H]1CCCN1C(=O)[C@H](CC(C)C)NC(=O)[C@H](CO)NC(=O)[C@H](CCC(N)=O)NC(=O)[C@@H](N)CC(C)C)C(=O)N[C@@H](CC(C)C)C(=O)N[C@@H](CCSC)C(=O)O` was 413 nM.
For the molecule `CC[C@H](C)[C@H](N)C(=O)N[C@@H](C)C(=O)N[C@@H](CC(N)=O)C(=O)N[C@@H](CC(C)C)C(=O)N[C@@H](CC(C)C)C(=O)NCC(=O)N[C@@H](C)C(=O)N[C@@H](CS)C(=O)N[C@H](C(=O)N[C@H](C(=O)O)[C@@H](C)CC)[C@@H](C)O` (H-IANLLGACTI-OH; N-terminus and C-terminus assumed), the IC50 came to 6420 nM.
Consider `CC(C)C[C@H](NC(=O)[C@H](Cc1ccccc1)NC(=O)[C@H](Cc1ccccc1)NC(=O)[C@H](CCCCN)NC(=O)[C@@H]1CCCN1C(=O)[C@H](Cc1c[nH]c2ccccc12)NC(=O)[C@H](CCCCN)NC(=O)[C@@H](NC(=O)[C@H](CC(C)C)NC(=O)[C@@H](N)Cc1ccc(O)cc1)[C@@H](C)O)C(=O)O` (H-YLTKWPKFFL-OH; N-terminus and C-terminus assumed), for which the IC50 amounted to 42.9 nM.
The same measure, in the same setting: under `CC(C)C[C@H](NC(=O)[C@H](CC(C)C)NC(=O)[C@H](CC(=O)O)NC(=O)[C@H](CO)NC(=O)[C@H](CC(C)C)NC(=O)[C@@H]1CCCN1C(=O)[C@@H](NC(=O)[C@@H](NC(=O)[C@@H](N)CC(N)=O)C(C)C)C(C)C)C(=O)O` (H-NVVPLSDLL-OH; N-terminus and C-terminus assumed) stands 916 nM.
Same read-out and setting: the value for `CC(C)C[C@H](NC(=O)[C@H](C)N)C(=O)N[C@@H](CC(N)=O)C(=O)N[C@@H](CO)C(=O)N[C@@H](CCC(=O)O)C(=O)N[C@@H](C)C(=O)N[C@@H](CC(C)C)C(=O)N[C@@H](CO)C(=O)N[C@H](C(=O)O)C(C)C` (H-ALNSEALSV-OH) was 14 nM.
